Measurements as given in patent EP0335164A2, “Ester derivatives of neopentanol, process for their preparation and their use as medicines” (Merckle GmbH, priority 1988, dated 1989).
Marks after values point to notes of the source that are not given here.

Columns and labels:
Pfotenoedem = experiment: Rat paw oedema test after oral administration (anti-inflammatory effect); assay type: in vivo, Ratte
From the text: (§1) Die entzündungshemmende Wirkung wurde mit ausgewählten Verbindungen jedes Estertyps im Vergleich zum jeweiligen Standard im konventionellen Rattenpfotenoedemtest nach oraler Applikation untersucht. Die Ergebnisse sind in Tab. 3 zusammengefaßt. Weiterhin wurde mit einigen Verbindungen die entzündungshemmende Aktivität nach dermaler Applikation am Kaolin-induzierten Pfotenoedem der Ratte untersucht. Für den Test wurden die Substanzen in einer Mischung aus Ethanol/Aceton/Dimethylacetamid gelöst und im konstanten Volumen 30 Min. vor und 150 Min. nach Injektion von Kaolin (0,1 ml 10%-ige Suspension in Wasser) appliziert. Das Pfotenvolumen wurde 2, 4 und 6 Stunden nach Kaolininjektion gemessen. Die Ergebnisse sind in Tabelle 4 zusammengefaßt.

[1] = system: Kaolin-induziertes Pfotenoedem; experiment: Kaolin-induced rat paw oedema after dermal administration; assay type: in vivo, Ratte; conditions: 10 mg/kg standard acid, esters 12.3-13.2 mg/kg equivalent to 10 mg/kg acid, applied 30 min before and 150 min after kaolin; for % Hemmung 2h: 2 h after kaolin injection; for % Hemmung 4h: 4 h after kaolin injection; for % Hemmung 6h: 6 h after kaolin injection
From the text: as §1

SMILES | Hemmeffekt % (Pfotenoedem; 50 mg/kg) | % Hemmung 2h [1] | % Hemmung 4h [1] | % Hemmung 6h [1] | further results
CC(C(=O)OCC(C)(C)C)c1ccc(C(=O)c2cccs2)cc1 (centres unmarked) [Beispiel 15] |  |  |  |  | Hemmeffekt % (Pfotenoedem; 5 mg/kg): 37%
CC(C)(C)COC(=O)COC(=O)Cc1ccccc1Nc1c(Cl)cccc1Cl [Beispiel 24] | 33% |  |  |  | 
CC(C)Cc1ccc(C(C)C(=O)OCC(C)(C)CO)cc1 (centres unmarked) [Beispiel 11] | 47% |  |  |  | 
CC(C)Cc1ccc(C(C)C(=O)OCC(C)(C)C)cc1 (centres unmarked) [Beispiel 17] |  |  |  |  | Hemmeffekt % (Pfotenoedem; 25 mg/kg): 43%
CC(C(=O)O)c1ccc(C(=O)c2cccs2)cc1 (centres unmarked) [Suprofen, 2-[4-(2-Thenoyl)phenyl]-propionsäure, reference compound] | 20% |  |  |  | 
CC(C(=O)OCC(C)(C)C)c1ccc(-c2ccccc2)c(F)c1 (centres unmarked) [Beispiel 14] |  |  |  |  | Hemmeffekt % (Pfotenoedem; 1 mg/kg): 35%
O=C(O)Cc1cn(-c2ccccc2)nc1-c1ccc(Cl)cc1 [Lonazolac, 3-(4-Chlorphenyl)-1-phenyl-1H-pyrazol-4-essigsäure, reference compound] |  | 0% | 3.1% | 30.0*** % | Hemmeffekt % (Pfotenoedem; 25 mg/kg): 38%
CC(C(=O)OCC(C)(C)CO)c1ccc(C(=O)c2cccs2)cc1 (centres unmarked) [Beispiel 9] |  |  |  |  | Hemmeffekt % (Pfotenoedem; 10 mg/kg): 34%; Hemmeffekt % (Pfotenoedem; 25 mg/kg): 43%
O=C(O)Cc1ccccc1Nc1c(Cl)cccc1Cl [Diclofenac, 2-[(2,6-Dichlorphenyl)amino]-phenylessigsäure, reference compound] |  | 0% | 36.2*** % | 37.6*** % | Hemmeffekt % (Pfotenoedem; 100 mg/kg): 38%
CC(C(=O)O)c1cccc(C(=O)c2ccccc2)c1 (centres unmarked) [Ketoprofen, 2-(3-Benzoylphenyl)-propionsäure, reference compound] |  |  |  |  | Hemmeffekt % (Pfotenoedem; 38 mg/kg): 44%
CC(C(=O)OCC(=O)OCC(C)(C)C)c1ccc(-c2ccccc2)c(F)c1 (centres unmarked) [Beispiel 4] |  |  |  |  | Hemmeffekt % (Pfotenoedem; 25 mg/kg): 33%
O=C(O)c1ccccc1Nc1cccc(C(F)(F)F)c1 [Flufenaminsäure, N-(α,α,α-Trifluor-m-tolyl)anthranilsäure, reference compound] | 33% | 0% | 19.4** % | 23.2** % | 
CC(C)(C)COC(=O)Cc1cn(-c2ccccc2)nc1-c1ccc(Cl)cc1 [Beispiel 3, Lonazolacneopentylester] |  | 18.2* % | 31.6*** % | 34.3*** % | 
CC(C(=O)OCC(C)(C)CO)c1cccc(C(=O)c2ccccc2)c1 (centres unmarked) [Beispiel 5] |  |  |  |  | Hemmeffekt % (Pfotenoedem; 10 mg/kg): 33%
CC(C(=O)O)c1ccc(-c2ccccc2)c(F)c1 (centres unmarked) [Flurbiprofen, 2-(2-Fluor-4-biphenylyl)-propionsäure, reference compound] | 40% |  |  |  | 
CC(C)(CO)COC(=O)c1ccccc1Nc1cccc(C(F)(F)F)c1 [Beispiel 1, Flufenaminsäureneopentylglykolmonoester] | 55% | 2.2% | 23.7*** % | 36.8*** % | Hemmeffekt % (Pfotenoedem; 25 mg/kg): 38%
CC(C)(C)COC(=O)COC(=O)Cc1cn(-c2ccccc2)nc1-c1ccc(Cl)cc1 [Beispiel 22] |  |  |  |  | Hemmeffekt % (Pfotenoedem; 15 mg/kg): 46%
CC(C)Cc1ccc(C(C)C(=O)O)cc1 (centres unmarked) [Ibuprofen, 2-(4-Isobutylphenyl)-propionsäure, reference compound] | 35% |  |  |  | 
CC(C)(C)COC(=O)Cc1ccccc1Nc1c(Cl)cccc1Cl [Beispiel 16] | 36% | 19.2* % | 40.1*** % | 43.2*** % | 
